The source of these data is PMC12006963, “Application of Deuterium in an M1 Positive Allosteric Modulator Back-Up Program: The Discovery of VU6045422” (ACS Chemical Neuroscience, 2025).

The subject of data set [1] is bacterial mutagenicity (4-strain with and without S9). The data set can be described thus: Bacterial mutagenicity mini-AMES assay. In kind it is cell-based.
The nature of data set [2]: GSH trapping in microsomes. The data set is classed as in vitro ADME. The conditions noted are these: rat, dog, cyno, and human microsomes.
For a further data set, the target named is CYP 3A5 (Homo sapiens, UniProt P20815). The experiment in a line: CYP isoform contribution to metabolism: 3A5. In kind it is in vitro ADME.
CYP 3A5, sequence (P20815 whole entry, canonical isoform): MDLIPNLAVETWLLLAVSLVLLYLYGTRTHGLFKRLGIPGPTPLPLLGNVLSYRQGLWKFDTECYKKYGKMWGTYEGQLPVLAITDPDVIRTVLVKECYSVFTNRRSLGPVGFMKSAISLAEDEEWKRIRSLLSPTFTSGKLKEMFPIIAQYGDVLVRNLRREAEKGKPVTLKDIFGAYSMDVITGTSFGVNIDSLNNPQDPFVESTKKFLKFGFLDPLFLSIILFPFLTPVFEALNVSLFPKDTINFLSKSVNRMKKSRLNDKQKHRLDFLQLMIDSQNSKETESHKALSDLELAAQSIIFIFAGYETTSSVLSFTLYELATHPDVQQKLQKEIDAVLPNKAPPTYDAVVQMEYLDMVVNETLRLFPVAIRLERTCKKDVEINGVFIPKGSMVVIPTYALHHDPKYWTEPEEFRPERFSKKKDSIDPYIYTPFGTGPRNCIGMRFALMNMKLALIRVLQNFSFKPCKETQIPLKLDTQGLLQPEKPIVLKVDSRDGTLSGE
Another data set deals with seizure activity. The experiment in a line: Behavioral manifestations of seizure activity (modified Racine score). The data set is classed as in vivo, C57Bl/6 mice. The note with it: 100 mg/kg IP in mice; modified Racine scale 0-5. How it is done:
page 9: Brain plasma concentration ratio (Kp) was calculated by dividing brain concentration by plasma concentration for each animal. Unbound brain to unbound plasma concentration ratio (Kp,uu) is calculated using the following formula: Kp,uu = (Brain ng/g x brain fu)/(plasma ng/ml x plasma fu). Pharmacokinetic profiles in rats following oral single escalating doses Single escalating oral dosing in Sprague-Dawley rats was performed at Frontage Laboratories according to their non-GLP Standard Operating Procedure and IACUC protocols. In short, compounds were formulated in 10% Tween 80 in water and dosed at 10 mg/kg. At different times, arterial blood was collected from a femoral artery catheter, and compound concentration was determined in plasma by LC-MS/MS following their non-GLP protocol. PK parameters were determined using Phoenix WinNonlin software (version 6.3). In-vitro determination of blood-brain barrier penetration potential Blood-brain barrier penetration was determined using MDR1-MDCK cell monolayers by Absorption Systems, following their protocol. In short, compounds were incubated at […] final concentration on one side of the cell monolayer for 2 hours. […] Animals were monitored continuously and scored for behavioral manifestations of seizure activity at 5, 15, 30 min, and 1 h. Behavioral manifestations of seizures were scored using a modified Racine scoring system. […]

Another data set deals with Adenosine A1 (Homo sapiens, UniProt P30542). The data set can be described thus: Eurofins radioligand binding.
A further data set has as its target Adenosine A2A (Homo sapiens, UniProt P29274). The data set can be described thus: Eurofins radioligand binding.
The next data set concerns the target Adenosine A3 (Homo sapiens, UniProt P0DMS8). The experiment in a line: Eurofins radioligand binding.
Another data set concerns the target Adrenergic α2A (Homo sapiens, UniProt P08913). The experiment in a line: Eurofins radioligand binding.
In the next data set the target is Adrenergic β1 (Homo sapiens, UniProt P08588). The data set can be described thus: Eurofins radioligand binding.
Adrenergic β1, sequence (P08588 whole entry): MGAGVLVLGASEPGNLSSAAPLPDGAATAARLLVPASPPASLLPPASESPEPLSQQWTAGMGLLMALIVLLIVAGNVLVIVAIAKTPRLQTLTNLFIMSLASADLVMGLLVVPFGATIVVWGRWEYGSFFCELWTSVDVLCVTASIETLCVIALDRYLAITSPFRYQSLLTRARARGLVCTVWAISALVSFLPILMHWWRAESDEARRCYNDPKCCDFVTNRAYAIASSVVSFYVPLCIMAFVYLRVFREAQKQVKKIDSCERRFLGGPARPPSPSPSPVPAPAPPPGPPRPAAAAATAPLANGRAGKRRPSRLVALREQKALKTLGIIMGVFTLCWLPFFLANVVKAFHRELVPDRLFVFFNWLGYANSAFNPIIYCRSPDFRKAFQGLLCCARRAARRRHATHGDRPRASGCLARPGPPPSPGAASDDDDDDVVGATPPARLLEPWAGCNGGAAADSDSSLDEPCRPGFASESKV
A further data set has as its target Bradykinin B2 (Homo sapiens, UniProt P30411). The data set can be described thus: Eurofins radioligand binding.
The subject of data set [3] is Calcium Channel L-Type, Dihydropyridine. The experiment in a line: Eurofins radioligand binding. Also noted: species or system Rat.
A further data set concerns the target Endothelin ETB (Homo sapiens, UniProt P24530). The experiment in a line: Eurofins radioligand binding.
A further data set deals with Glucocorticoid (Homo sapiens, UniProt P04150). The data set can be described thus: Eurofins radioligand binding.
Glucocorticoid, sequence (P04150 whole entry): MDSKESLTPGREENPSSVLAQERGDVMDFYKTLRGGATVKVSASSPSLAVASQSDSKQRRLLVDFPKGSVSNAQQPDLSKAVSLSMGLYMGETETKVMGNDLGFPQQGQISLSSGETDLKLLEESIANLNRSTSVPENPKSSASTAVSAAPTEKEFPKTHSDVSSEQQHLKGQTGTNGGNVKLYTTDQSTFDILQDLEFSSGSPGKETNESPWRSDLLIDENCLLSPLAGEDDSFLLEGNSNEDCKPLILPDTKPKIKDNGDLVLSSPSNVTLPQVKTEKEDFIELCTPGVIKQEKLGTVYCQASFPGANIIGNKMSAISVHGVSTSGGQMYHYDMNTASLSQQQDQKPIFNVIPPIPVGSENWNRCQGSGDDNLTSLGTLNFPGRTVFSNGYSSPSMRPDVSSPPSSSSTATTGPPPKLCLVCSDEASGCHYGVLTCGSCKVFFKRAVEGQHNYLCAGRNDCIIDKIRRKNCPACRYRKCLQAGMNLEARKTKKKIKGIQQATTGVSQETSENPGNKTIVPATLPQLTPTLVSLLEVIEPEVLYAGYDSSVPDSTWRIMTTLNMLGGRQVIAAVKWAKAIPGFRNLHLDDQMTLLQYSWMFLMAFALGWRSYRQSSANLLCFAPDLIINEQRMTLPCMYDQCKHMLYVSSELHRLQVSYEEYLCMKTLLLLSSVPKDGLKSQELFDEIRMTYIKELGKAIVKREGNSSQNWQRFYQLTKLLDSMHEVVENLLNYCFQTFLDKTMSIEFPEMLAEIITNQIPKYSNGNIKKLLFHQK
Another data set deals with Histamine H1 (Homo sapiens, UniProt P35367). The experiment in a line: Eurofins radioligand binding.
A further data set deals with Neuropeptide Y Y1 (Homo sapiens, UniProt P25929). The data set can be described thus: Eurofins radioligand binding.
Neuropeptide Y Y1, sequence (P25929 whole entry): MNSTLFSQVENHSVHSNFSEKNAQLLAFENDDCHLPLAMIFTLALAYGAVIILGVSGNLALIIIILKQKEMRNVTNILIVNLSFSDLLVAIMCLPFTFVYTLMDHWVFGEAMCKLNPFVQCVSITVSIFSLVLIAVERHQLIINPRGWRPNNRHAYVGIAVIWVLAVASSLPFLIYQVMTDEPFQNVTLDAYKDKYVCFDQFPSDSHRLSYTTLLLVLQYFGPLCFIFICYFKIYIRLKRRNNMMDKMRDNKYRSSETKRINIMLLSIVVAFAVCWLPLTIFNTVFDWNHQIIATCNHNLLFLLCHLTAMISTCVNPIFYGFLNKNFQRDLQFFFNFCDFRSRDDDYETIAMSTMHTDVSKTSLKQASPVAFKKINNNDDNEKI
The target of data set [4] is Nicotinic Acetylcholine α1, Bungarotoxin (Homo sapiens, UniProt P02708+P07510+Q07001). The experiment in a line: Eurofins radioligand binding. The conditions noted are these: read-out: % Inhibition at 10 µM.
Data set [5] deals with Platelet Activating Factor (PAF) (Homo sapiens, UniProt P25105). The data set can be described thus: Eurofins radioligand binding.
Platelet Activating Factor (PAF), sequence (P25105 whole entry): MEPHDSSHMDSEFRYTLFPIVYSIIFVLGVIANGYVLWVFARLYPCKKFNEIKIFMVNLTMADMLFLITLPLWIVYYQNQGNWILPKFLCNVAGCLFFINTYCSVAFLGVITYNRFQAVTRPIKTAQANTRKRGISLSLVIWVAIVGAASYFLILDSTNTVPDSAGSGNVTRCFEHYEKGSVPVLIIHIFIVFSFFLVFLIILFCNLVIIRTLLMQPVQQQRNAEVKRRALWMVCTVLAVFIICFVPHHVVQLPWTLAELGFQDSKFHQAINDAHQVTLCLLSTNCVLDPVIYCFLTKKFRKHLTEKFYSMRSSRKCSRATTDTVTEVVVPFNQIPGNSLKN
A further data set has as its system Purinergic P2X. The data set can be described thus: Eurofins radioligand binding. More on the design: species or system Rat.
Data set [6] deals with Purinergic P2Y, Non-Selective. The experiment in a line: Eurofins radioligand binding. More on the design: species or system Rat.
Another data set addresses Serotonin (5-HT2B) (Homo sapiens, UniProt P41595). The data set can be described thus: Eurofins radioligand binding.
The target of another data set is Serotonin (5-HT3) (Homo sapiens, UniProt P46098). The data set can be described thus: Eurofins radioligand binding.
Another data set relates to Sodium Channel, Site 2. The experiment in a line: Eurofins radioligand binding. More on the design: species or system Rat.
A further data set addresses Tachykinin NK1 (Homo sapiens, UniProt P25103). The experiment in a line: Eurofins radioligand binding.
The target of data set [7] is Transporter, Norepinephrine (NET) (Homo sapiens, UniProt P23975). The experiment in a line: Eurofins radioligand binding.
Transporter, Norepinephrine (NET), sequence (P23975 whole entry): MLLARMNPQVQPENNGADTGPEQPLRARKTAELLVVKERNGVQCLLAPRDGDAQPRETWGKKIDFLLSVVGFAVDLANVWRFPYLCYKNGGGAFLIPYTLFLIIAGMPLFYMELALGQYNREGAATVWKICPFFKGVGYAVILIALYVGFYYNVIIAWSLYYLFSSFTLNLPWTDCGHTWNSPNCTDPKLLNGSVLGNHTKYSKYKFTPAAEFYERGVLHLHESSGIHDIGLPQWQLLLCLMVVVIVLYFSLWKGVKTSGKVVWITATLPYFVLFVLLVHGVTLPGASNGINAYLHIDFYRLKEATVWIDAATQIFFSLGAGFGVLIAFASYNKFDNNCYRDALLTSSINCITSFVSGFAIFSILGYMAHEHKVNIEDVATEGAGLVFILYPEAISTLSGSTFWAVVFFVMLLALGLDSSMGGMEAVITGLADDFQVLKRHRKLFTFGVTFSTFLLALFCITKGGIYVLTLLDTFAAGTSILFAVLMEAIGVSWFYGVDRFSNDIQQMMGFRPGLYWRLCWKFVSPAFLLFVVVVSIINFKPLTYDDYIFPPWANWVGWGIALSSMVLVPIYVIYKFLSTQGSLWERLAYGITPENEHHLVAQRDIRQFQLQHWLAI

Each structure is given as a SMILES string.

Adenosine A3, sequence (P0DMS8 whole entry): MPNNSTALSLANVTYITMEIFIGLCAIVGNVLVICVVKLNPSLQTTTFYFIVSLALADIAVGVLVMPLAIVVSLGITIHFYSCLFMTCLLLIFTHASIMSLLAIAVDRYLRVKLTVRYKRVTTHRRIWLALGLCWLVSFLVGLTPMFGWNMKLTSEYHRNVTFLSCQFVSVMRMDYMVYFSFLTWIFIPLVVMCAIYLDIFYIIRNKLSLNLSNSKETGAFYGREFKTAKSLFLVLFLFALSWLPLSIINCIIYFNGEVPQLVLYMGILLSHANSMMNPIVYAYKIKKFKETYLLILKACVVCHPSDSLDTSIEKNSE
Endothelin ETB, sequence (P24530 27-442): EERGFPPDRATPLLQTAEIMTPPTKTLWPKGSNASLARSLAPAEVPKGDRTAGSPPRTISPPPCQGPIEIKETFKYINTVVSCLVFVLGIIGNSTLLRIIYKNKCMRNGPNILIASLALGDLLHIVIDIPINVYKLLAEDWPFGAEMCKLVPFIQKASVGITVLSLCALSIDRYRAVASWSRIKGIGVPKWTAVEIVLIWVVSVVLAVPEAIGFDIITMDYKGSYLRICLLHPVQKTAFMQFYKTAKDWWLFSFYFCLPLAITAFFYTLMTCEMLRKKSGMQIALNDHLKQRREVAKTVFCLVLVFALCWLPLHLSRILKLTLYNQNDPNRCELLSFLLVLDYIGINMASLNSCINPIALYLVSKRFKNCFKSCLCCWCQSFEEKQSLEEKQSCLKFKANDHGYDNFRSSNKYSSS
Bradykinin B2, sequence (P30411 whole entry): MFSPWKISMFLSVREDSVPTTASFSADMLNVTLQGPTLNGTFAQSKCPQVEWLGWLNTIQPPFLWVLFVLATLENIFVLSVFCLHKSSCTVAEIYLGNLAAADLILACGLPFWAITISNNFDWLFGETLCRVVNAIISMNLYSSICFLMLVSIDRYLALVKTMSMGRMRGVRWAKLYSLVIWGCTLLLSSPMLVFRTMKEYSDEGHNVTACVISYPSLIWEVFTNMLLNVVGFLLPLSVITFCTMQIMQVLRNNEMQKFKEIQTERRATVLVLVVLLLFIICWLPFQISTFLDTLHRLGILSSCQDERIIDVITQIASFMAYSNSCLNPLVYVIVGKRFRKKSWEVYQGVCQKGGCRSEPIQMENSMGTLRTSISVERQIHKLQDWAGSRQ
Adrenergic α2A, sequence (P08913 whole entry): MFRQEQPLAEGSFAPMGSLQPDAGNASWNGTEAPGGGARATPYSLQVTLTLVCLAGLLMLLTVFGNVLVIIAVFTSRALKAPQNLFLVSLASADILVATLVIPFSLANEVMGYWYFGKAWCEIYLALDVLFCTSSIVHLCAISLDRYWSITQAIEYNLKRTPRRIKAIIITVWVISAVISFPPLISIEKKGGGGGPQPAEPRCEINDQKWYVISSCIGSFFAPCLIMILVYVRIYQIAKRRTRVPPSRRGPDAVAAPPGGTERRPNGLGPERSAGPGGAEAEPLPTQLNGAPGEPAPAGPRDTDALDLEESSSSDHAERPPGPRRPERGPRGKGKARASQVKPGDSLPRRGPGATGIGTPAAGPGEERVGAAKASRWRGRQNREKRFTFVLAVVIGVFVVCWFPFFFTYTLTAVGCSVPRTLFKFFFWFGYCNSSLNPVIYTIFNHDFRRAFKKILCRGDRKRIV

As to `[2H]C1([2H])c2ncccc2C(=O)N1Cc1c(F)cc(-c2cccc3nn(C([2H])([2H])[2H])cc23)cc1F` [compound 5], the “bacterial mutagenicity mini-AMES result” value in [1] is given as “negative”. Moreover, in [2], the “conjugation in GSH trapping studies” value was < 0.1%. The “contribution of CYP 3A5 to metabolism” value at CYP 3A5 was 5.8%. In the data set with seizure activity, the Racine score stood at 1. The inhibition (in general, the drop in the measured response relative to a control, in per cent) at 10 µM was 30% at Adenosine A1; 7% at Adenosine A2A; 12% at Adenosine A3; 58% at Adrenergic α2A; 2% on Adrenergic β1; 2% at Bradykinin B2. The inhibition at 10 µM on Endothelin ETB is 1%; on Glucocorticoid, 13%; on Histamine H1, 2%; on Neuropeptide Y Y1, -13%; in data set [4], 8%; in data set [5] it was 22%. Besides, the inhibition at 10 µM is 10% at Serotonin (5-HT2B), -9% at Serotonin (5-HT3), 4% on Tachykinin NK1 and 12% in data set [7]. In addition, the % Inhibition (usually the relative decrease from the control value, in per cent) at 10 µM in data set [3] is given as 6%; in the data set with Purinergic P2X, 4%; in data set [6], 9%; with Sodium Channel, Site 2, 14%.
